{"source": "patent US20180296561A1", "about": "“The Methods For Treatment Of Tumors” (The University of North Carolina at Chapel Hill, priority 2015, published 2018)", "key": {"[1]": {"test_system": "monocytes and macrophages that expressed MerTK", "conditions": "addition of UNC569; cited from earlier work"}, "melanoma cells": {"test_system": "melanoma cells", "conditions": "cited from earlier work"}, "[2]": {"test_system": "non-small cell lung cancer (NSCLC) and acute myeloid leukemia (AML) tumor cell lines", "conditions": "cited from earlier work"}, "melanoma": {"test_system": "melanoma", "conditions": "melanoma mouse model, therapeutic doses; cited from earlier work"}, "Colon26 tumor cells": {"test_system": "Colon26 tumor cells", "assay": "Colon26 syngeneic colon carcinoma model: tumor volume, time to endpoint, survival", "type": "in vivo, Female BALB/c mice", "conditions": "for median time to endpoint (TTE): endpoint 1000 mm^3 or 45 days; for tumor growth delay (TGD) / tumor growth delay (TGD), percent / mice remaining through day 15: alone or with the antibody in the label; for mice remaining through day 15: n=9", "procedure": "Female BALB/c mice were injected with 5×10^5 Colon26 tumor cells in 0% Matrigel sc in flank. The cell injection volume was 0.1 mL/mouse. Mice were between 7 to 10 weeks at the start of the experiment. When tumors reached an average size of 80-120 mm^3, treatment was begun. Body weight was measured five times per week for the first two weeks and then twice per week to the end of the experiment. Tumor volume was measured by caliper measurement twice per week to the end of the experiment. […] Any group with a mean body weight loss of greater than 20% or greater than 10% mortality was stopped dosing. The group was not euthanized and recovery was allowed. Within a group with greater than 20% weight loss, individuals hitting the individual body weight loss endpoint were euthanized. The endpoint of the experiment was a tumor volume of 1000 mm^3 or 45 days, whichever endpoint came first. When the endpoint was reached, the mice were euthanized.\nUNC2371 was prepared in salt form and the dosing solution was prepared every day. UNC2371 was prepared in deionized water. All doses represent total substance dosed by weight of compound (including salt weight). […] Dosing solution was prepared at 5 mL/kg (0.100 mL/20 g mouse) and volume was adjusted accordingly for body weight. Dosing solutions of anti-CTLA4 9H10 (BioXcell cat# BE0131) and anti-PD1 RMP1-14 (rat Ig—BioXcell cat# BE0146) were prepared in PBS every week, stored at 4° C., and protected from light. Dosing solution was prepared at 10 mL/kg (0.200 mL/20 g mouse) and volume was adjusted accordingly for body weight.\nMice were randomized into twelve different experimental groups. Group 1 received deionized water via oral gavage (p.o.) three times daily for twenty-one days, starting with two doses on Day 1 (tid×21 first day two doses) and PBS i.p. twice weekly for two weeks (biwk×2). Groups 2-4 received UNC2371 via oral gavage (p.o.) three times daily for twenty-one days, starting with two doses on Day 1 (tid×21 first day two doses). Dosing amounts for UNC2371 for Groups 2-4 were 1, 5 and 15 mg/kg, respectively. Group 5 received anti-PD1 mAb at a dosage of 5 mg/kg i.p. biwk×2. Group 6 received anti-CTLA4 mAb at a dosage of 5 mg/kg on Day 1 and at 2.5 mg/kg on Days 4 and 7. Groups 7-9 received UNC2371 (p.o. tid×21, first day two doses) at 1, 5 and 15 mg/kg, respectively, in combination with anti-PD1 (5 mg/kg i.p. biwk×2). Groups 10-12 received UNC2371 (p.o. tid×21, first day two doses) at 1, 5 and 15 mg/kg, respectively, in combination with anti-CTLA4 (5 mg/kg on Day 1 and at 2.5 mg/kg on Days 4 and 7)."}, "[3]": {"test_system": "myeloid-derived suppressor cells (MDSCs)", "assay": "mRNA expression in myeloid-derived suppressor cells from B16/F10 tumor-bearing mice", "type": "in vivo, mouse", "procedure": "To evaluate the effect of MerTK inhibitors on myeloid-derived suppressor cells (MDSCs), C57BL/6 B16/F10 melanoma cells were implanted into syngeneic mice and tumors are allowed to form. Once tumors reached 5 mm in diameter, mice received either vehicle (0.9% NaCl) or 10, 25 or 50 mg/kg UNC2371 for 5 days. Initial experiments determined the lowest dose capable of altering the immune system. Myeloid-derived suppressor cells (MDSCs) were isolated from the spleens of tumor-bearing mice by fluorescence activated cell sorting using the cell surface markers CD11b^+Ly6G^−Ly6C^high and G-MDSCs by CD11b^+Ly6G^highLy6C^low. MDSCs' suppressive capabilities were assessed by the level of RNA for M2 capabilities."}, "[4]": {"test_system": "Colon26 murine colon carcinoma", "assay": "Immunohistochemistry of Colon26 tumors (CD3, F4/80, survivin)", "type": "in vivo, mouse", "procedure": "Tumors from 2 to 3 mice per treatment group were formalin fixed and paraffin embedded. The samples were analyzed by immunohistochemistry for several biological markers (data not shown). T cells (cell marker=CD3) were increased in the 1 mg/kg UNC2371 (low dose) monotherapy arm and 1 mg/kg UNC2371/anti-CTLA4 combination treatment arm compared to vehicle. […] Macrophages (cell marker F4/80) were highest in group 6 (anti-CTLA4) and group 10 (UNC2371 1 mg/kg+anti-CTLA4) with similar staining seen in these two groups. […] Tumors were also analyzed for survivin staining."}, "B16 melanoma": {"test_system": "B16 melanoma", "assay": "B16 melanoma mouse model with radiation therapy (XRT), secondary tumor", "type": "in vivo", "procedure": "MerTK ihibitors were analyzed in combination with immune checkpoint inhibitors in a B16 melanoma mouse model for their effect on secondary tumor growth in mice treated with radiation therapy (XRT). XRT is performed according to the following schematic:\nBriefly, XRT (8 Gy) was given on days 9, 10, and 11. UNC2371 was given at a dose of 50 mg/kg, by oral gavage, qd, initiated at Day 8. Anti-PD1 was given at 200 μg IP on days 6, 9, and 12. Eight mice were analyzed in each treatment arm (XRT, MerTKi, anti-PD1, anti-PD1+MerTKi, XRT+MerTKi, XRT+anti-PD1, and XRT+anti-PD1+MerTKi). Tumors were implanted on both flanks, and the secondary tumor was shielded during XRT treatment. The secondary tumor was assessed for impact of abscopal effect."}, "[5]": {"test_system": "Colon26 murine colon carcinoma", "assay": "Flow cytometry of immune cells in tumor and PBMCs, Colon26 model, Day 8", "type": "in vivo, mouse", "procedure": "Tumor samples and blood samples were analyzed by flow cytometry to determine the effect of a MerTK inhibitor on immune cells alone or in combination with an immune checkpoint inhibitor in the Colon26 murine colon carcinoma mouse model. In the following example, the MerTK inhibitor UNC2371 was examined in combination with the immune checkpoint inhibitors anti-CTLA4 and anti-PD1. Experiments were performed as described in Example 3 above, except that mice in each group were euthanized at Day 8, and tumor tissue and blood samples were collected. Blood samples were collected by terminal cardiac puncture under isoflurane anesthesia. Blood was processed for peripheral blood monocyte cells (PBMCs; enriches the white cell population). Flow cytometry was conducted to identify specific white cell populations in both the PBMCs as well as the tumor cells. Tumor samples were preserved (single cell suspension) and maintained at −4° C."}, "AML": {"test_system": "AML", "conditions": "cited from earlier work"}}}
{"compound": "CCCCNc1ncc2c(-c3ccc(F)cc3)nn(CC3CCC(N)CC3)c2n1", "note": "(stereo not drawn) [UNC569]", "values": [{"measurement": "production of inflammatory cytokines", "setting": "[1]", "result": "restored"}]}
{"compound": "CCCCNc1ncc2c(-c3ccc(S(=O)(=O)N4CCOCC4)cc3)nn(C3CCC(O)CC3)c2n1", "note": "(stereo not drawn) [UNC1062]", "values": [{"measurement": "activation of MERTK-mediated downstream signaling", "setting": "melanoma cells", "result": "reduced"}, {"measurement": "apoptosis in culture", "setting": "melanoma cells", "result": "induced"}, {"measurement": "colony formation in soft agar", "setting": "melanoma cells", "result": "reduced"}, {"measurement": "invasion of melanoma cells", "setting": "melanoma cells", "result": "inhibited"}]}
{"compound": "CCCCNc1ncc2c(-c3ccc(CN4CCN(C)CC4)cc3)cn(C3CCC(O)CC3)c2n1", "note": "(stereo not drawn) [UNC2025A]", "values": [{"measurement": "colony formation", "setting": "[2]", "result": "can inhibit colony formation"}, {"measurement": "survival", "setting": "melanoma", "result": "survival advantage"}]}
{"compound": "CN1CCN(Cc2ccc(-c3cn(C4CCC(O)CC4)c4nc(NCCC5CC5)ncc34)cc2)CC1", "note": "(stereo not drawn) [UNC2371]", "values": [{"measurement": "single agent efficacy", "setting": "Colon26 tumor cells; anti-CTLA4, anti-PD1 and low dose UNC2371 as single agents, FIGS. 16 to 18", "result": "failed to demonstrate single agent efficacy"}, {"measurement": "median time to endpoint (TTE)", "setting": "Colon26 tumor cells; high dose UNC2371 15 mg/kg TID p.o. x21, alone or with the antibody in the label", "result": 20.7, "unit": "days"}, {"measurement": "tumor growth delay (TGD)", "setting": "Colon26 tumor cells; high dose UNC2371 15 mg/kg TID", "result": 6.9, "unit": "days"}, {"measurement": "tumor growth delay (TGD), percent", "setting": "Colon26 tumor cells; high dose UNC2371 15 mg/kg TID", "result": 50, "unit": "%"}, {"measurement": "mice remaining through day 15", "setting": "Colon26 tumor cells; high dose UNC2371 15 mg/kg TID", "result": "8/9"}, {"measurement": "median time to endpoint (TTE)", "setting": "Colon26 tumor cells; low dose UNC2371 1 mg/kg TID p.o. x21, alone or with the antibody in the label", "result": 14.0, "unit": "days"}, {"measurement": "tumor growth delay (TGD)", "setting": "Colon26 tumor cells; low dose UNC2371 1 mg/kg TID", "result": 0.2, "unit": "days"}, {"measurement": "tumor growth delay (TGD), percent", "setting": "Colon26 tumor cells; low dose UNC2371 1 mg/kg TID", "result": 1, "unit": "%"}, {"measurement": "mice remaining through day 15", "setting": "Colon26 tumor cells; low dose UNC2371 1 mg/kg TID", "result": "3/9"}, {"measurement": "median time to endpoint (TTE)", "setting": "Colon26 tumor cells; mid dose UNC2371 5 mg/kg TID p.o. x21, alone or with the antibody in the label", "result": 16.7, "unit": "days"}, {"measurement": "tumor growth delay (TGD)", "setting": "Colon26 tumor cells; mid dose UNC2371 5 mg/kg TID", "result": 2.9, "unit": "days"}, {"measurement": "tumor growth delay (TGD), percent", "setting": "Colon26 tumor cells; mid dose UNC2371 5 mg/kg TID", "result": 21, "unit": "%"}, {"measurement": "mice remaining through day 15", "setting": "Colon26 tumor cells; mid dose UNC2371 5 mg/kg TID", "result": "6/9"}, {"measurement": "arginase mRNA expression", "setting": "[3]; 25 mg/kg UNC2371 for 5 days vs vehicle control", "result": "decrease"}, {"measurement": "iNOS (inducible nitric oxide synthase) mRNA expression", "setting": "[3]; 10, 25, or 50 mg/kg UNC2371 for 5 days vs vehicle control", "result": "decrease"}, {"measurement": "IDO (indoleamine 2,3-dioxygenase) mRNA expression", "setting": "[3]; 10 or 25 mg/kg UNC2371 for 5 days vs vehicle control", "result": "decrease"}, {"measurement": "T cell (CD3 marker) penetration into the core of the tumor", "setting": "[4]", "result": "notable increase"}, {"measurement": "T cells (cell marker CD3) in tumor compared to vehicle", "setting": "[4]; 1 mg/kg UNC2371 (low dose)", "result": "increased"}, {"measurement": "survivin staining", "setting": "[4]; low dose 1 mg/kg UNC2371", "result": "markedly decreased staining"}, {"measurement": "secondary tumor volume compared with XRT alone", "setting": "B16 melanoma; UNC2371 50 mg/kg oral gavage qd from Day 8, anti-PD1 200 μg IP days 6, 9, 12, FIG. 22A", "result": "more effective than XRT alone"}, {"measurement": "tumor derived myeloid-derived suppressor cells (MDSCs)", "setting": "B16 melanoma; XRT+UNC2371 vs XRT, FIG. 22C", "result": "decrease"}, {"measurement": "abscopal effect on the secondary tumor", "setting": "B16 melanoma; with XRT 8 Gy days 9, 10, 11, UNC2371 50 mg/kg qd, anti-PD1 200 μg IP, FIG. 22B", "result": "enhanced the abscopal effect"}, {"measurement": "CD8+ cells in the tumor", "setting": "[5]; Day 8, FIG. 19, combination: low dose or medium dose UNC2371", "result": "increase"}, {"measurement": "Natural Killer (NK) cells in the tumor", "setting": "[5]; Day 8, FIG. 20", "result": "increase"}]}
{"compound": "CCCCNc1ncc2c(-c3ccc(S(=O)(=O)N4CCOCC4)cc3)cn(C3CCC(O)CC3)c2n1", "note": "(stereo not drawn) [UNC 1666]", "values": [{"measurement": "myeloid survival in AML", "setting": "AML", "result": "decreases"}, {"measurement": "oncogenic signaling in AML", "setting": "AML", "result": "decreases"}]}
